Reference: patent US4925852A, “3-demethylmevalonic acid derivatives, and pharmaceutical products based on these compounds” (Hoechst Aktiengesellschaft, priority 1987, dated 1990)
Where a name gives a salt, the structure may show the parent alone.

Columns and labels:
[1] = test system: HEP-G2 cells (cholesterol biosynthesis); assay: Inhibition of cholesterol biosynthesis in cell cultures of HEP-G2 cells (14C-acetate into 14C-cholesterol); assay type: cell-based; conditions: Homo sapiens, HepG2, Table 2, preincubation for example 1 hour, 14C-acetate for example 3 hours, read-out: IC50 (concentration of the compound which brings about 50% inhibition of cholesterol biosynthesis)
Experimental: Monolayers of HEP-G2 cells in lipoprotein-free nutrient medium were preincubated with appropriate concentrations of the test substances for a defined time (for example 1 hour), the labeled precursor, for example sodium ^14 C-acetate was added and then the incubation was continued (for example for 3 hours). Addition of an internal standard (^3 H-cholesterol) was followed by alkaline hydrolysis of some of the cells. The lipids were extracted from the hydrolyzed cells using chloroform/methanol. Carrier cholesterol was added to this lipid mixture which was then subjected to preparative thin-layer chromatography, the cholesterol band was visualized with iodine vapor and then isolated, and the amount of ^14 C-cholesterol formed from the ^14 C-precursor was determined by scintigraphy. Cellular protein was determined in an aliquot of the cells, so that it is possible to calculate the amount of ^14 C-cholesterol formed per mg of cellular protein in unit time.
in nmol of ^14 C-cholesterol/mg of cell protein
in comparison with the solvent control.
Using the method described above, the following values for the inhibition of cholesterol biosynthesis (in HEP-G2 cells) were determined for the compounds according to the invention, for example (the IC50 /mol/liter is the concentration of the compound which brings about 50% inhibition of cholesterol biosynthesis) (Tab. 2): […]

HMG-CoA reductase = target: T1, HMG-CoA reductase (Rattus norvegicus, UniProt P51639); assay: HMG-CoA reductase activity in solubilized enzyme preparations from rat liver microsomes (14C-HMG-CoA); assay type: biochemical; conditions: Table 1; solubilized rat liver microsomal enzyme; mean of 3 parallel samples; read-out: IC50 (molar concentration of the compound required for 50% inhibition of HMG-CoA reductase)
T1 construct: solubilized enzyme preparations from rat liver microsomes; from tissue; host or cells: rat liver microsomes (cholestyramine-induced), solubilized
T1 sequence (P51639 1-887): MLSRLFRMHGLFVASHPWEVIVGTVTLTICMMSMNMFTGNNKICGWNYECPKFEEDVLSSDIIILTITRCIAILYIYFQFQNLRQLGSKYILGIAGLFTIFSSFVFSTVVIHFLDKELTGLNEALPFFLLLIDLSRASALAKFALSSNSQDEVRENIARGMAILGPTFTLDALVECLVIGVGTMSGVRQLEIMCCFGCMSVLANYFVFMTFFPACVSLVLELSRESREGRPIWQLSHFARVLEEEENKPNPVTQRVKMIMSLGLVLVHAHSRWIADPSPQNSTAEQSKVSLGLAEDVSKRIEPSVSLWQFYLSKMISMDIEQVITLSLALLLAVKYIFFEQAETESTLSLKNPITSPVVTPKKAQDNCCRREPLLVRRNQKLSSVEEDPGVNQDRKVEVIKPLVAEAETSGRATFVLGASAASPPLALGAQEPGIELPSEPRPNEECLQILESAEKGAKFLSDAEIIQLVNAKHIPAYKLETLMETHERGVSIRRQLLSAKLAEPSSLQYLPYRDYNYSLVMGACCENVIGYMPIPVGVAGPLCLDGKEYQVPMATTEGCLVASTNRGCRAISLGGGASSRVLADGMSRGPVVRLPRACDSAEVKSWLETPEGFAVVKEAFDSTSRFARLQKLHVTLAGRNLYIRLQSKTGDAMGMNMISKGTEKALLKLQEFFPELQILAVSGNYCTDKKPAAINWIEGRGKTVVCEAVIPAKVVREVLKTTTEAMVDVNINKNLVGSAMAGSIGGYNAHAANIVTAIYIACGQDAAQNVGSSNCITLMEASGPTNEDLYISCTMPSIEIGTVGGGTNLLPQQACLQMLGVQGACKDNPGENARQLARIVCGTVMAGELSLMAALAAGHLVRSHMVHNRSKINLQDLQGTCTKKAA
Experimental: The HMG-CoA reductase activity was measured on solubilized enzyme preparations from rat liver microsomes induced, after a changeover in the day/night rhythm, with cholestyramine (® CUEMID). The substrate used was (S,R)-^14 C-HMG-CoA, and the NADPH concentration was maintained during the incubation by a regenerating system. ^14 C-Mevalonate was separated from the substrate and other products (for example ^14 C-HMG) by column elution, the elution profile of each individual sample being determined. ^3 H-Mevalonate was not always included in the determination because relative data on the inhibitory effects were required. […] Each individual value was the mean formed from 3 parallel samples. The significance of the mean differences between product-free and product-containing samples was assessed using the t test.

[2] = test system: 3-hydroxy-3-methylglutaryl-coenzyme A reductase (HMG-CoA reductase); conditions: cited from earlier work
cholesterol [3] = conditions: literature; cited from earlier work
cholesterol [4] = conditions: literature; cited from earlier work; remark: listed apart in the source

SMILES	IC50 (HMG-CoA reductase)	also measured
CC(C)c1nc(-c2ccccc2)nc(-c2ccc(F)cc2)c1/C=C/[C@@H]1C[C@@H](O)CC(=O)O1 [Example 11o]	–	IC50 [1]: 5 nM
Cc1cc(-c2ccc(Cl)cc2)c(/C=C/[C@@H](O)C[C@@H](O)CC(=O)O)c(C)n1 [Example 13b]	94 nM	–
CC[C@H](C)C(=O)O[C@H]1CCC=C2C=C[C@H](C)[C@H](CC[C@@H]3C[C@@H](O)CC(=O)O3)[C@H]21 [compactin]	–	inhibition of HMG-CoA reductase (literature) [2]: inhibition
CC(O)(CC(=O)O)CC(=O)O [3-Hydroxy-3-methylglutaric acid]	–	cholesterol-lowering action in human experiments (cholesterol [3]): significant cholesterol-lowering action; cholesterol-lowering action in the rat (cholesterol [4]): significant cholesterol-lowering action
Cc1cc(-c2ccc(F)cc2)c(/C=C/[C@@H](O)C[C@@H](O)CC(=O)O)c(C(C)C)n1 [Example 13d]	9.1 nM	–
CC(C)c1nc(-c2ccc(F)cc2)nc(-c2ccc(F)cc2)c1/C=C/[C@@H](O)C[C@@H](O)CC(=O)O [Example 13w]	0.9 nM	–
Cc1nc(C)c(/C=C/[C@@H](O)C[C@@H](O)CC(=O)O)c(-c2ccc(Cl)cc2)n1 [Example 13l]	600 nM	–
O=C(O)C[C@H](O)C[C@H](O)/C=C/c1c(-c2ccc(F)cc2)cc(-c2ccccc2)nc1C1CC1 [Example 13ac]	1 nM	–
CC(C)c1cc(-c2ccc(F)cc2)c(/C=C/[C@@H](O)C[C@@H](O)CC(=O)O)c(C(C)C)n1 [Example 13q]	2.5 nM	–
CC(C)c1nc(-c2ccc(O)cc2)cc(-c2ccc(F)cc2)c1/C=C/[C@@H](O)C[C@@H](O)CC(=O)O [Example 13ab]	1.5 nM	–
CC(C)c1nc(-c2ccccc2)cc(-c2ccc(F)cc2)c1/C=C/[C@@H]1C[C@@H](O)CC(=O)O1 [Example 11e]	–	IC50 [1]: 5 nM
Cc1cc(-c2ccc(F)cc2)c(/C=C/[C@@H]2C[C@@H](O)CC(=O)O2)c(C(C)C)n1 [Example 11d]	–	IC50 [1]: 50 nM
Cc1cc(-c2ccc(F)cc2)c(/C=C/[C@@H](O)C[C@@H](O)CC(=O)O)c(C)n1 [Example 13a, (E)- and (Z)-(3R,5S)-3,5-Dihydroxy-7-(2,6-dimethyl-4-(4-fluorophenyl)pyridin-3-yl)-6-heptenoic acid potassium salts]	260 nM	–
CC(C)c1nc(-c2ccc(F)cc2)c(/C=C/[C@@H](O)C[C@@H](O)CC(=O)O)c(C(C)C)n1 [Example 13v]	2.5 nM	–
Cc1ccc(C)c(-c2cc(-c3ccc(F)cc3)c(/C=C/[C@@H](O)C[C@@H](O)CC(=O)O)c(C(C)C)n2)c1 [Example 13i]	5 nM	–
CC(C)c1nc(-c2ccccc2)cc(-c2ccc(F)cc2)c1/C=C/[C@@H](O)C[C@@H](O)CC(=O)O [Example 13e]	2.9 nM	–
Cc1nc(-c2ccccc2)cc(-c2ccc(F)cc2)c1/C=C/[C@@H]1C[C@@H](O)CC(=O)O1 [Example 11c]	–	IC50 [1]: 90 nM
CC(C)(C)c1nc(-c2ccccc2)cc(-c2ccc(F)cc2)c1/C=C/[C@@H](O)C[C@@H](O)CC(=O)O [Example 13g]	18 nM	–
CC(C)c1nc(-c2ccccc2)nc(-c2ccc(F)cc2)c1/C=C/[C@@H](O)C[C@@H](O)CC(=O)O [Example 13o]	3 nM	–
CC(C)c1nc(C(C)(C)C)cc(-c2ccc(F)cc2)c1/C=C/[C@@H](O)C[C@@H](O)CC(=O)O [Example 13r]	1.2 nM	–
Cc1nc(C)c(/C=C/[C@@H](O)C[C@@H](O)CC(=O)O)c(-c2ccc(F)cc2)n1 [Example 13k]	500 nM	–
Cc1nc(-c2ccccc2)cc(-c2ccc(F)cc2)c1/C=C/[C@@H](O)C[C@@H](O)CC(=O)O [Example 13c]	38 nM	–
CC(C)c1nc(-c2ccc(F)cc2)cc(-c2ccc(F)cc2)c1/C=C/[C@@H](O)C[C@@H](O)CC(=O)O [Example 13j]	2.3 nM	–
CC(C)c1nc(C2CCCCC2)cc(-c2ccc(F)cc2)c1/C=C/[C@@H](O)C[C@@H](O)CC(=O)O [Example 13s]	3.7 nM	–
CC(C)c1cc(-c2ccccc2)nc(-c2ccc(F)cc2)c1/C=C/[C@@H](O)C[C@@H](O)CC(=O)O [Example 13f]	4 nM	–
